Laboratory results taken from US20220135968A1, “TREATMENT OF SYNUCLEINOPATHY AND ANIMAL MODELS OF SYNUCLEINOPATHY” (TORREY PINES LAW GROUP, PC, priority 2018, published 2022).
Entries after “also recorded” stand apart in the source; their conditions may differ.

Columns and labels:
[1] = system: patients; details: cited from earlier work; for disease symptoms in patients: treatment reported in literature
[2] = system: Parkinson's mouse models; details: Parkinson's mouse models (Patki, 2011); cited from earlier work
[3] = system: MNT-1 cells; experiment: Rapamycin-induced autophagy in MNT-1 cells, melanin content as readout; format: cell-based, human; details: autophagy induced by rapamycin, exposure to α-MSH, FIG. 1A
Source text: FIG. 1A is a bar chart depicting α-MSH disabling autophagy in MNT-1 cells when autophagy is induced by rapamycin.
(§1) FIGS. 1-6 show the induction of synucleinopathy in vitro and in vivo upon exposure to α-MSH employing the MNT-1 cell line (a gift from Michael S. Marks, Ph.D.) as an in vitro model of neuromelanin-containing neurons and the mouse administered α-MSH by intranasal route, respectively. […] Additionally, rapamycin induced autophagy was reduced in the prescence of α-MSH (FIG. 1A). Normally an increase in melanin production by MNT-1 is observed in the presence of rapamycin, since rapamycin induces autophagy and autophagy-related genes that promote melanogenesis. Melanin levels serve as a reliable readout of autophagy in MNT-1 (Kalie, 2013). Indeed, a decrease in melanin was observed when autophagy was inhibited in melanocytes (Zhang, 2015).
A human pigmented cell line MNT-1 was utilized as a model for pigmented dopaminergic neurons to assess synuclein pathology following exposure to the inducer, α-MSH. […] Additionally, cell autophagy induced by rapamycin or starvation was disabled (FIGS. 1A and 1B). […] With time, vulnerable cells begin to die and undergo apoptotic cell death as measured by caspase activity (FIG. 4B). α-Synuclein accumulation and aggregation, loss of melanin and cell death by apoptosis are cardinal features observed in synuclein diseases such as PD and MSA.

[4] = system: MNT-1 cells; experiment: Starvation-induced (nutrient-depleted) autophagy and melanin formation in MNT-1 cells; format: cell-based, human; details: starved MNT-1 cells, α-MSH treated vs untreated, FIG. 1B
Source text: FIG. 1B is a photograph of cells in wells of a culture plate depicting starvation-induced autophagy in cells is inhibited by α-MSH resulting in inhibition of melanin production.
as §1
A human pigmented cell line MNT-1 was utilized as a model for pigmented dopaminergic neurons to assess synuclein pathology following exposure to the inducer, α-MSH. […] With time, vulnerable cells begin to die and undergo apoptotic cell death as measured by caspase activity (FIG. 4B). α-Synuclein accumulation and aggregation, loss of melanin and cell death by apoptosis are cardinal features observed in synuclein diseases such as PD and MSA.

[5] = system: MNT-1 cells; experiment: Immunofluorescence staining of intracellular α-synuclein in MNT-1 cells; format: cell-based, human
Source text: as §1
FIGS. 2C, 3, and 4C show human ASIP inhibiting the effects of α-MSH in cellular models and is an effective therapeutic for preventing and reversing synuclein pathology. ASIP was tested as a therapeutic for synucleinopathy in the in vitro cellular model of neuromelanin-containing neurons modeled by MNT-1 cells. […] Immunofluorescence from the α-MSH and ASIP treated cells display similar quantity of α-synuclein compared to healthy, non-treated cells. […]

[6] = system: MNT-1 cells; experiment: Glucose consumption of cells in culture exposed to α-MSH; format: cell-based, human; details: α-MSH exposed vs not exposed cells, low nutrient conditions, FIG. 4A
[7] = system: MNT-1 cells; experiment: Apoptosis by fluorescence-based detection of activated caspases (microscopy, flow cytometry); format: cell-based, human; details: FIG. 4B
Source text: (§2) FIGS. 4A-C depict the mechanism of cell death induced by α-MSH and inhibition by ASIP, which blocks cell death. […] Vulnerable cells appear with higher fluorescence intensity for the marker of apoptosis, while untreated cells remain alive and show only background fluorescence (top-left panel). […] FIG. 4C is a bar chart depicting ASIP blocking α-MSH effects and protecting against cell death.
as §1

[8] = system: mice; experiment: Induction of synucleinopathy in mice by intranasal α-MSH, gait on rotorod; format: in vivo, mouse; details: α-MSH intranasal left nostril every other day for one month
Source text: FIGS. 5A-B depict the in vivo induction of synucleinopathy in mice by α-MSH. FIG. 5A is a drawing showing the administration of α-MSH into the left nostril of the mouse and a timeline showing frequency of administration and behavioral testing performed by rotorod. FIG. 5B is a series of rotorod testing photographs of a mouse chronically administered α-MSH by intranasal route for a period of 1 month to induce synucleinopathy (see FIG. 5a).
Three mice were given the inducer, α-MSH, which was administered once every other day for one month through an intranasal route through the left nostril (FIG. 5a), and one mouse not subjected to the α-MSH inducer served as a healthy control. Observations and measurements were taken weekly at the end of α-MSH administration. […] The control mouse not subjected to α-MSH maintained normal gait and leg movement. Gait impairment observed in the three mice given the α-MSH, is characteristic of motor symptoms associated with PD and MSA symptoms. Moreover, the time-dependent intensified serverity of gait impairment after α-MSH administration is indicative of disease progression as measured through manisfestation of worsening physical symptoms. […]
Three mice were given the inducer, α-MSH, through an intranasal route and one mouse was not subjected to α-MSH. The gait of all four mice was monitored every […] after subjection to one month of α-MSH treatment. […]

[9] = system: substantia nigra of mouse; experiment: Immunohistochemistry of mouse brain sections for alpha-synuclein; format: in vivo; details: mouse given α-MSH in left nostril, anti-mouse alpha synuclein staining, FIG. 6a
Description: FIGS. 6A-B are immunohistochemistry microscopy photographs of brain sections stained with anti-mouse alpha synuclein (BD Biosciences, Clone 42/α-Synuclein).
Three mice were given the inducer, α-MSH, which was administered once every other day for one month through an intranasal route through the left nostril (FIG. 5a), and one mouse not subjected to the α-MSH inducer served as a healthy control. Observations and measurements were taken weekly at the end of α-MSH administration. […] The control mouse not subjected to α-MSH maintained normal gait and leg movement. Gait impairment observed in the three mice given the α-MSH, is characteristic of motor symptoms associated with PD and MSA symptoms. Moreover, the time-dependent intensified serverity of gait impairment after α-MSH administration is indicative of disease progression as measured through manisfestation of worsening physical symptoms. A cardinal feature of synucleinopathy pathology is the presence of aggregated intracellular alpha-synuclein, which is the predominant constituent of Lewy bodies and glial cytoplasmic inclusions (GCIs) observed in the affected regions of the brain in PD, MSA and DLB. […] Pathology was absent in the control mouse not subjected to α-MSH (FIG. 6b).

[10] = system: MNT-1 cells; experiment: ASIP reversal of α-MSH induced block in autophagy, melanin content; format: cell-based, human; details: α-MSH exposed cells treated with ASIP vs not treated, FIG. 3
Description: (§3) FIGS. 2C, 3, and 4C show human ASIP inhibiting the effects of α-MSH in cellular models and is an effective therapeutic for preventing and reversing synuclein pathology. ASIP was tested as a therapeutic for synucleinopathy in the in vitro cellular model of neuromelanin-containing neurons modeled by MNT-1 cells. […] Immunofluorescence from the α-MSH and ASIP treated cells display similar quantity of α-synuclein compared to healthy, non-treated cells. This indicates ASIP inhibits the accumulation and aggregation of intracellular α-synuclein, and additionally has the potential to reverse the accrual of toxic protein aggregates and reverse impairment of autophagy. […] Thus, as a therapeutic ASIP promotes an environment ideal for recovery and is amenable for cell restoration strategies. Based on the in vitro cellular model presented herein, ASIP halts induction and progression of synucleinopathy and reverses the disease.

[11] = system: MNT-1 cells; experiment: Cell viability of α-MSH exposed cells with ASIP; format: cell-based, human; details: α-MSH exposed cells with 200 nM ASIP vs without ASIP, FIG. 4C
Source text: as §2, §3

Pro-Leu-Gly-NH2
disease symptoms in patients [1]: improvement in disease symptoms

β-Melanocyte Stimulating Hormone [β-MSH]
skin darkening in treated patients ([1]; patients treated with β-MSH (Cotzias, 1967)): darkenening of skin of treated patients | disease symptoms in patients [1]: worsening of Parkinsonian symptoms

COc1ccc2[nH]cc(CCNC(C)=O)c2c1 [melatonin]
disease symptoms in patients [1]: improved PD symptoms | locomotor deficits [2]: stalled locomotor deficits

α-Melanocyte Stimulating Hormone [α-MSH]
rapamycin-induced cellular autophagy / melanin levels [3]: disabled; also recorded: lower melanin levels; also recorded: reduced | starvation-induced autophagy / melanin formation [4]: lack of melanin; also recorded: melanin formation is not observed; also recorded: inhibited autophagy and melanin formation | accumulation and aggregation of intracellular α-synuclein ([5]; MNT-1 cells exposed to α-MSH vs not exposed, FIG. 2B): inducing accumulation and aggregation of α-synuclein; also recorded: increase in intensity of immunofluorescence staining of intracellular α-synuclein | glucose consumption [6]: glucose consumption is observed to be faster; also recorded: consume glucose faster than untreated cells | apoptotic events (flow cytometry, marker of apoptosis) ([7]; 4, 7 and 9 days of exposure to α-MSH vs medium alone): increasing apoptotic events | cell death by apoptosis (fluorescence microscopy) ([7]; α-MSH exposed cells, 6 days): die by apoptosis | gait / leg impairment ([8]; four, six and eight weeks after): progressive leg impairment; also recorded: impaired/weakened right hind leg, loss of symmetry in gait; also recorded: progressive weakness and deteriorating motor control | gait / leg impairment ([8]; two weeks after end of treatment): No apparent leg impairment; also recorded: normal gait; also recorded: No significant gait impairment | alpha-synuclein aggregation in substantia nigra [9]: synuclein pathology was observed in the substantia nigra; also recorded: alpha-synuclein aggregation observed in a neuron located in the left substantia nigra; also recorded: Lewy body-like aggregate of alpha-synuclein in the left substantia nigra

B1: Agouti Signaling Protein (protein, UniProt P42127 23-132, looked up)
Agouti-signaling protein: HLPPEEKLRDDRSLRSNSSVNLLDVPSVSIVALNKKSKQIGRKAAEKKRSSKKEASMKKVVRPRTPLSAPCVATRNSCKPPAPACCDPCASCQCRFFRSACSCRVLSLNC
inhibition of α-MSH induced α-synuclein accumulation ([5]; MNT-1 cells exposed to α-MSH and ASIP, FIG. 2C): halt α-synuclein accumulation and aggregation induced by α-MSH; also recorded: inhibition of α-MSH induced accumulation of α-synuclein; also recorded: decreased levels of α-synuclein measured by immunofluorescence | melanin content (restoration of cellular autophagy) [10]: restoring melanin production; also recorded: increase in melanin content; also recorded: restoration of melanin levels | cell viability (protection against cell death) [11]: protects against cell death; also recorded: viability is higher; also recorded: Cells maintain viability
